Measured values published in patent US4082849A, “Halogenated N-(3,5-dihalophenyl)cyclopropanedicarboximides” (priority 1975, dated 1978).
Like-named read-outs stand apart in the source and are kept apart here.

Tests used:
[1] = test system: Aspergillus niger ATCC 6275; assay: Anti-fungal spectrum, agar dilution method; assay type: cell-based; details: Aspergillus niger ATCC 6275, 50 ppm, PSA plate, 28° C
Phytophthora infestans = assay: microbe, parasite or virus in culture; assay type: cell-based; details: read-out: growth inhibiting effect
Pyricularia oryzae = assay: microbe, parasite or virus in culture; assay type: cell-based; details: read-out: growth inhibiting effect
Sclerotinia sclerotiorum [2] = assay: Test for Sclerotinia sclerotiorum controlling effect on cucumbers; assay type: in vivo; details: 100 ppm
Method: After one day, Sclerotinia sclerotiorum was inoculated on the surface of the leaf, and the disease severity was observed three days thereafter. The degree of the severity was determined in the following manner. The rate of diseased area on the leaf was measured and classified in one of the six infectious indexes (0, 1, 2, 3, 4, 5) according to the undermentioned criteria. The number of leaves corresponding to each infectious index ([NT]5) was determined, and degree of severity was calculated according to the undermentioned equation: […]

Pellicularia sasakii = assay: Anti-fungal spectrum, agar dilution method; assay type: cell-based; details: read-out: growth inhibiting effect
Botrytis cinerea [3] = assay: Anti-fungal spectrum, agar dilution method; assay type: cell-based; details: PSA plate, 28° C, read-out: growth inhibiting effect
[4] = test system: Colletotrichum lagenarium; assay: Anti-fungal spectrum, agar dilution method; assay type: cell-based; details: Colletotrichum orbiculare, PSA plate, 28° C, read-out: growth inhibiting effect
Rhizoctonia solani [5] = test system: Rhizoctonia solani
Method: Test for Rhizoctonia solani controlling effect on cucumber
Farm soil was charged into pots of 9 cm in diameter and a soil (10 ml) infected with Rhizoctonia solani was dispersed over the surface of said soil. Each of the test compounds in the form of emulsifiable concentrates was diluted with water to a given concentration, and the dilution was applied into each pot in a proportion of 20 ml per pot. After 2 hours, 10 seeds of cucumber were sowed therein. 5 Days thereafter, the infectious state of the grown seedlings was observed, and the percentage of stand was calculated according to the following equation: [formula]

[6] = test system: Fusarium oxysporum f. lycopersici; assay: Anti-fungal spectrum, agar dilution method; assay type: cell-based; details: PSA plate, 28° C, read-out: growth inhibiting effect
Glomerella cingulata [7] = assay: Anti-fungal spectrum, agar dilution method; assay type: cell-based; details: Colletotrichum gloeosporioides, PSA plate, 28° C, read-out: growth inhibiting effect
Rhizoctonia solani [8] = assay: Anti-fungal spectrum, agar dilution method; assay type: cell-based; details: PSA plate, 28° C, read-out: growth inhibiting effect
Corticium rolfsii = assay: Anti-fungal spectrum, agar dilution method; assay type: cell-based; details: Agroathelia rolfsii, PSA plate, 28° C, read-out: growth inhibiting effect
Rhizopus nigricans = assay: Anti-fungal spectrum, agar dilution method; assay type: cell-based; details: Rhizopus stolonifer, PSA plate, 28° C, read-out: growth inhibiting effect
Glomerella cingulata [9] = test system: Glomerella cingulata
Method: Test for Glomerella Cingulata controlling effect on grape
An aqueous dilution of the test compound in the form of a wettable powder preparation was applied to berries of grape at a rate of 20 ml per branch. After one day, Glomerella cingulata was inoculated on the surface of the berries immediately after injuring the inoculation site. Three days after inoculation, disease assessment was made. Percentage of control was calculated from the diameter of diseased area according to the following equation: [formula]

Sclerotinia sclerotiorum [10] = assay: Anti-fungal spectrum, agar dilution method; assay type: cell-based; details: PSA plate, 28° C, read-out: growth inhibiting effect
Verticillium albo-atrum = assay: Anti-fungal spectrum, agar dilution method; assay type: cell-based; details: PSA plate, 28° C, read-out: growth inhibiting effect
[11] = test system: Chaetomium globosum ATCC 6205; assay: Anti-fungal spectrum, agar dilution method; assay type: cell-based; details: Chaetomium globosum ATCC 6205, 50 ppm, PSA plate, 28° C
Giberella fujikuroi = assay: Anti-fungal spectrum, agar dilution method; assay type: cell-based; details: read-out: growth inhibiting effect
Botrytis cinerea [12] = assay: Test for Botrytis cinerea controlling effect on cucumbers; assay type: in vivo
Method: After one day, agar discs (diameter: 5 mm) with Botrytis cinerea were put on the leaves for inoculation. Three days after, the disease severity was observed, and the disease-controlling effect was estimated. Percentage of control was determined by the following procedure. The rate of diseased area on the tested leaf was measured and classified in one of the six infectious indexes (0, 1, 2, 3, 4, 5) according to the undermentioned criteria. The number of leaves corresponding to each infectious index ([NT]5) was determined, and percentage of control was calculated according to the undermentioned equation: […]

[13] = Pellicularia sasakii, 50 ppm, PSA plate, 28° C
[14] = Giberella fujikuroi, 50 ppm, PSA plate, 28° C

| Compound | growth inhibiting effect [1] | inhibition at 50 ppm (Phytophthora infestans) [%] | inhibition at 50 ppm (Pyricularia oryzae) [%] | Degree of severity (Sclerotinia sclerotiorum [2]) [%] | inhibition at 50 ppm (Botrytis cinerea [3]) [%] | inhibition at 50 ppm [4] [%] | Percentage of stand (Rhizoctonia solani [5]; 250 ppm) [%] | Percentage of stand (Rhizoctonia solani [5]; 500 ppm) [%] | inhibition at 50 ppm [6] [%] | inhibition at 50 ppm (Glomerella cingulata [7]) [%] | inhibition at 50 ppm (Rhizoctonia solani [8]) [%] | inhibition at 50 ppm (Corticium rolfsii) [%] | inhibition at 50 ppm (Rhizopus nigricans) [%] | Percentage of control (Glomerella cingulata [9]; 250 ppm of ingredient) [%] | inhibition at 50 ppm (Sclerotinia sclerotiorum [10]) [%] | inhibition at 50 ppm (Verticillium albo-atrum) [%] | growth inhibiting effect [11] | Percentage of control (Botrytis cinerea [12]; 50 ppm) [%] | Percentage of control (Botrytis cinerea [12]; 200 ppm) [%] | further results |
| --- | --- | --- | --- | --- | --- | --- | --- | --- | --- | --- | --- | --- | --- | --- | --- | --- | --- | --- | --- | --- |
| CC12CC1(Cl)C(=O)N(c1cc(Cl)cc(Cl)c1)C2=O (stereo not drawn) [Compound 1, N-(3,5-dichlorophenyl)-α-chloro-β-methylcyclopropanedicarboximide] | A (no growth) | 100 | 90 | 100 | 100 | 100 | 100 | 100 | 100 | 100 | 100 | 100 | 100 | 100 | 100 | 100 | A (no growth) | – | – | inhibition at 50 ppm (Pellicularia sasakii; [13]): 100%; inhibition at 50 ppm (Giberella fujikuroi; [14]): 100% |
| CC12CC1(Br)C(=O)N(c1cc(Cl)cc(Cl)c1)C2=O (stereo not drawn) [Compound 5] | – | – | – | 100 | – | – | – | – | – | – | – | – | – | – | – | – | – | 95 | 100 | – |
| CC12CC1(C)C(=O)N(c1cc(Cl)cc(Cl)c1)C2=O (stereo not drawn) [reference compound] | E (5 % inhibition) | 0 | 0 | – | 100 | 0 | 0 | 21.3 | 70 | 30 | 90 | 0 | 0 | 6.5 | 100 | 5 | E (5 % inhibition) | – | – | inhibition at 50 ppm (Pellicularia sasakii): 100%; inhibition at 50 ppm (Giberella fujikuroi): 0% |
| CC1C2C(=O)N(c3cc(Cl)cc(Cl)c3)C(=O)C12Cl (stereo not drawn) [Compound 4] | – | – | – | 100 | – | – | 96.7 | 100 | – | – | – | – | – | – | – | – | – | 100 | 100 | – |
| CCCCNC(=O)n1c(NC(=O)OC)nc2ccccc21 [Methyl-1-(butylcarbamoyl)-2-benzimidazole carbamate, reference compound] | – | – | – | 35 | – | – | – | – | – | – | – | – | – | – | – | – | – | 90 | 100 | – |
| O=[N+]([O-])c1c(Cl)c(Cl)c(Cl)c(Cl)c1Cl [PCNB, reference compound] | – | – | – | – | – | – | 93.4 | – | – | – | – | – | – | – | – | – | – | – | – | – |
| CC12CC1(Cl)C(=O)N(c1cc(Br)cc(Br)c1)C2=O (stereo not drawn) [Compound 3, N-(3,5-dibromophenyl)-α-chloro-β-methylcyclopropanedicarboximide] | A (no growth) | 100 | 90 | 94 | 100 | 90 | – | – | 100 | 100 | 100 | 100 | 90 | 78.5 | 100 | 100 | A (no growth) | 92 | 100 | inhibition at 50 ppm (Pellicularia sasakii; [13]): 100%; inhibition at 50 ppm (Giberella fujikuroi; [14]): 100% |
| Mancozeb [reference compound] | – | – | – | – | – | – | – | – | – | – | – | – | – | – | – | – | – | – | – | Percentage of control (Glomerella cingulata [9]; 140 ppm of ingredient): 65.0% |
| O=C1C2CC2(Cl)C(=O)N1c1cc(Cl)cc(Cl)c1 (stereo not drawn) [Compound 2] | – | – | – | 100 | – | – | 100 | 100 | – | – | – | – | – | 100 | – | – | – | 100 | 100 | – |
